In patent publication EP0401715B1, “Aminoketone compounds” (priority 1989, dated 1990):
Where a name gives a salt, the structure may show the parent alone. Read-outs that look alike come from different tables or passages of the source.

Biological target: T1, cholinesterase (Rattus norvegicus, UniProt P37136)
T1 construct: The S₁ fraction of a cerebral cortex homogenate from male Wistar rats was used as the cholinesterase source; from tissue; host or cells: S1 fraction of cerebral cortex homogenate, male Wistar rats
T1 sequence (P37136 32-614): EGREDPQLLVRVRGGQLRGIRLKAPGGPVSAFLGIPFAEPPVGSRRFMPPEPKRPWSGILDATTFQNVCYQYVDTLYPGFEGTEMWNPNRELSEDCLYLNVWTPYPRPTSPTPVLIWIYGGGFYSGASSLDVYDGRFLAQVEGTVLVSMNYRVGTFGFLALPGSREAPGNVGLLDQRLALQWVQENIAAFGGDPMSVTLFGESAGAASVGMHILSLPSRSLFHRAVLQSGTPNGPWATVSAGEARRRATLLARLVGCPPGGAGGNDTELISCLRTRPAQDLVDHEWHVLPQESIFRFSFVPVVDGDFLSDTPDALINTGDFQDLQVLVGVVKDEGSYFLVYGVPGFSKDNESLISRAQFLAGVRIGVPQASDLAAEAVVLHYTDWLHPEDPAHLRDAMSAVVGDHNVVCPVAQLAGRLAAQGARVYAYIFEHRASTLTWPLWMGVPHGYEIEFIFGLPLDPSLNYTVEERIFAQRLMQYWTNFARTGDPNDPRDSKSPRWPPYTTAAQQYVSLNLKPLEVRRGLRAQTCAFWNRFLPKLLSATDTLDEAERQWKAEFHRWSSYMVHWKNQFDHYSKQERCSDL
Test: Anticholinesterase activity using (acetyl-[³H])-acetylcholine as substrate
Type: biochemical, male Wistar rats
Description: The anticholinesterase activity of the compound of the invention was evaluated using (acetyl-[³H])-acetylcholine. The S₁ fraction of a cerebral cortex homogenate from male Wistar rats was used as the cholinesterase source, (acetyl-[³H])-acetylcholine as the substrate and the test compound of the invention as the test substance. The incubation was carried out for 30 minutes and after the reaction was terminated, the system was shaken with a toluene scintillator to thereby transfer [³H]-acetic acid into the toluene layer. The radioactivity in the toluene layer was then measured with a liquid scintillation counter to estimate the anticholinesterase activity of the test compound.

CCN(CCCCCC(=O)c1ccc(N2CCCC2)cc1)Cc1ccccc1 [Example 4-2, N-Ethyl-N-(phenylmethyl)-N-[6-(4-pyrrolidinophenyl)-6-oxohexyl]amine fumarate]
IC50: 0.31 µM

CCN(CCCCCC(=O)c1ccc(N2CCCC2)cc1)Cc1ccccc1OC [Example 4-3, N-Ethyl-N-[(2-methoxyphenyl)methyl]-N-[6-(4-pyrrolidinophenyl)-6-oxohexyl]amine fumarate]
IC50 (S₁ fraction of a cerebral cortex homogenate from male Wistar rats as cholinesterase source, incubation 30 minutes, read-out: Anticholinesterase activity, IC₅₀): 0.05 µM
